As usually defined, the IC50 is the concentration that gives 50% inhibition.

This assay has as its target T1, rh-integrin α4β7/LPAM-1 (Homo sapiens, UniProt P13612+P26010).
T1 sequence (P13612 34-977 limits assumed): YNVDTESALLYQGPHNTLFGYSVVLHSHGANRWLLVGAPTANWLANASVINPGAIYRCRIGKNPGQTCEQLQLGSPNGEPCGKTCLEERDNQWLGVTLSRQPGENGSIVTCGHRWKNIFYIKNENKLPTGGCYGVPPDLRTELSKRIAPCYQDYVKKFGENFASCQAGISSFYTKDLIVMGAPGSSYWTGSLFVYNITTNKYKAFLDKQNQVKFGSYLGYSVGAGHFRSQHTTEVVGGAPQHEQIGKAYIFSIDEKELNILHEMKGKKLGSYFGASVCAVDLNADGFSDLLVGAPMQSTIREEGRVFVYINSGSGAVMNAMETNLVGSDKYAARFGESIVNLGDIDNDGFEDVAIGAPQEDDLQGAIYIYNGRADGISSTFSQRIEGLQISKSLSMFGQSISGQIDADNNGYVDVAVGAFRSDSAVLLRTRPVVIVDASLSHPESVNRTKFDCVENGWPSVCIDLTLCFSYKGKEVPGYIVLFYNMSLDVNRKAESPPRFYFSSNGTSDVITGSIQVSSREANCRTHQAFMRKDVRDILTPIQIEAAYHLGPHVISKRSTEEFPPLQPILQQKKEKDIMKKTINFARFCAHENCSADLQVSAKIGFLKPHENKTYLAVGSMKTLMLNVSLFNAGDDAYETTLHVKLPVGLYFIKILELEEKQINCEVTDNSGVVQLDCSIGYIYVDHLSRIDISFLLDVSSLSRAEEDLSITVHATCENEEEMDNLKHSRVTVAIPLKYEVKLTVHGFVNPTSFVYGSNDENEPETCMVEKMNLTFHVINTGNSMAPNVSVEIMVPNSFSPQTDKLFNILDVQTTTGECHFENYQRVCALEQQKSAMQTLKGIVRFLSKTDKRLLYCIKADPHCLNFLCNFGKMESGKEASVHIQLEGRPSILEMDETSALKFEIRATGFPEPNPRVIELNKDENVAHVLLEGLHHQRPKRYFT
T1 sequence (P26010 20-723 limits assumed): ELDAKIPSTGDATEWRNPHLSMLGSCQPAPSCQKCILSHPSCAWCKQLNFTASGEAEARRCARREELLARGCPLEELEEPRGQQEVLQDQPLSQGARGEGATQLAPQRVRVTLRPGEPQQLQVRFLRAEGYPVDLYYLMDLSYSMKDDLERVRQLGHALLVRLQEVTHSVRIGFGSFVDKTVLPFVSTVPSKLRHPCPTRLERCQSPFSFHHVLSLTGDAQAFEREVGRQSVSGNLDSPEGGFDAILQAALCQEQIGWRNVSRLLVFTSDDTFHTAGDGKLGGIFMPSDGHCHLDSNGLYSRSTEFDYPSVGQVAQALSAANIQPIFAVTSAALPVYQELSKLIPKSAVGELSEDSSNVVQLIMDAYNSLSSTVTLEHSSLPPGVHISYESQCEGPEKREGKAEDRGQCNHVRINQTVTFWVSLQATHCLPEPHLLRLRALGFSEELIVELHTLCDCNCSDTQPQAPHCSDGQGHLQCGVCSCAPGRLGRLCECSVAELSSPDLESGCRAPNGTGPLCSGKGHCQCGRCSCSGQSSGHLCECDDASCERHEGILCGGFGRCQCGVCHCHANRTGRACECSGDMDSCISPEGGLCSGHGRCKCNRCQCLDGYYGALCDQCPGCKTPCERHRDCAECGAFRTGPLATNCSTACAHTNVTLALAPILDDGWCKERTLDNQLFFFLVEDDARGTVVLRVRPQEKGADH
The assay can be described thus: α4β7-MadCAM Competition ELISA (Example 4). The format is binding. To be noted: Table 3 Representative compounds; inhibition of MAdCAM binding to coated α4β7; read-out: IC50. How it is done:
After washing with wash buffer, 200 μL assay buffer was added to each well and incubated for one hour at 28° C. After another wash with wash buffer, 100 μL of a MAdCAM and peptide mixture in assay buffer was added to each well and incubated for one hour at 28° C., followed by washing with wash buffer.

Numbered stars: 1 amine (or outer) side, 2 acyl side, 3 side chain; on linkers, the order of the positions; unused ones are H or OH. Bridge positions count the residues as written; N and C are the ends. Square brackets hold non-standard residues; d marks the D form. Peptide text beside a SMILES is read from it. ξ: configuration not given here. X3 = O=C(/C=N/OCCCCCCOc1cc(C[*:2])cc(C[*:3])c1)[*:1]; X9 = NC(=O)[C@H](CS[*:1])CC(=O)[C@H](CCC(=O)O)N[*:2]; tBuAla = CC(C)(C)C[C@H](N)C(=O)O; Thr(3ξ) = CC(O)[C@H](N)C(=O)O; Nle = CCCC[C@H](N)C(=O)O

For the molecule `CC(C)C[C@@H]1NC(=O)[C@@H]2CCCN2C(=O)[C@@H](NC(=O)[C@H](CCCCN)NC(=O)[C@@H](N)CO)CSSC[C@@H](C(N)=O)CC(=O)[C@H](CCC(=O)O)NC(=O)[C@H](Cc2ccc(O)cc2)NC(=O)[C@@H]2CCCN2C(=O)[C@H](C(C)O)NC(=O)[C@H](CC(=O)O)NC1=O` (stereo partly shown) [compound 25] (H-SKCPLD[Thr(3ξ)]PY; linker 3-C via X9), the IC50 came to 552 nM.

Take `CC(C)C[C@@H]1NC(=O)[C@@H]2CCCN2C(=O)[C@@H]2CSCc3cc(cc(c3)OCCCCCCO/N=C/C(=O)N[C@@H](CCCCN)C(=O)N2)CSC[C@@H](C(N)=O)NC(=O)[C@H](CCC(=O)O)NC(=O)[C@H](CCC(N)=O)NC(=O)[C@@H]2CCCN2C(=O)[C@H]([C@@H](C)O)NC(=O)[C@H](CC(=O)O)NC1=O` [compound 26, TSL6- SKCPLDTPQEC] (KCPLDTPQEC-NH2; linker N-2-10 via X3): the IC50 is 602 nM.

On to `CCCC[C@@H]1NC(=O)[C@@H]2CCCN2C(=O)[C@@H]2CSCc3cc(cc(c3)OCCCCCCO/N=C/C(=O)N[C@@H](CCCNC(=N)N)C(=O)N2)CSC[C@@H](C(N)=O)NC(=O)[C@H](CCCCN)NC(=O)[C@H](C(C)C)NC(=O)[C@H](Cc2c[nH]c3ccccc23)NC(=O)[C@H]([C@@H](C)CC)NC(=O)[C@H](CC(=O)O)NC1=O` [compound 27, TSL6- SRCP{Nle} DIWVKC] (RCP[Nle]DIWVKC-NH2; linker N-2-10 via X3), for which the IC50 worked out at 620 nM. With `CSCC[C@@H]1NC(=O)[C@@H]2CCCN2C(=O)[C@@H]2CSCc3cc(cc(c3)OCCCCCCO/N=C/C(=O)N[C@@H](CCC(N)=O)C(=O)N2)CSC[C@@H](C(N)=O)NC(=O)[C@H]([C@@H](C)O)NC(=O)[C@@H]2CCCN2C(=O)[C@H](C(C)C)NC(=O)[C@H](CC(=O)O)NC1=O` [compound 28, TSL6- SQCPMDVPTC] (QCPMDVPTC-NH2; linker N-2-9 via X3), the IC50 was found to be 672 nM. With `CSCC[C@@H]1NC(=O)[C@H](CC(=O)O)NC(=O)[C@H](CC(C)C)NC(=O)[C@@H]2CCCN2C(=O)[C@@H]2CSCc3cc(cc(c3)OCCCCCCO/N=C/C(=O)N[C@@H](CCCCN)C(=O)N2)CSC[C@@H](C(N)=O)NC(=O)[C@H](CCC(=O)O)NC(=O)[C@H](Cc2ccc(O)cc2)NC(=O)[C@@H]2CCCN2C1=O` [compound 29, TSL6- SKCPLDMPYEC] (KCPLDMPYEC-NH2; linker N-2-10 via X3) the figure was 672 nM. With `CC(C)[C@@H]1NC(=O)[C@H](CC(=O)O)NC(=O)[C@H](CC(C)(C)C)NC(=O)[C@@H]2CCCN2C(=O)[C@@H]2CSCc3cc(cc(c3)OCCCCCCO/N=C/C(=O)N[C@@H](CCCNC(=N)N)C(=O)N2)CSC[C@@H](C(N)=O)NC(=O)[C@H](CCC(=O)O)NC(=O)[C@H](CCC(N)=O)NC(=O)[C@@H]2CCCN2C1=O` [compound 30, TSL6- SRCP{tBuAla} DVPQEC] (RCP[tBuAla]DVPQEC-NH2; linker N-2-10 via X3) the figure was 690 nM. With `CC(C)C[C@@H]1NC(=O)[C@@H]2CCCN2C(=O)[C@@H]2CSCc3cc(cc(c3)OCCCCCCO/N=C/C(=O)N[C@@H](CCCCN)C(=O)N2)CSC[C@@H](C(N)=O)NC(=O)[C@H](CO)NC(=O)[C@@H]2CCCN2C(=O)[C@H](C(C)C)NC(=O)[C@H](CC(=O)O)NC1=O` [compound 31, TSL6- SKCPLDVPSC] (KCPLDVPSC-NH2; linker N-2-9 via X3) the figure was 723 nM.

As to `CC(C)C[C@@H]1NC(=O)[C@@H]2CCCN2C(=O)[C@@H]2CSCc3cc(cc(c3)OCCCCCCO/N=C/C(=O)N[C@@H](CCCCN)C(=O)N2)CSC[C@@H](C(N)=O)NC(=O)[C@H](CCC(=O)O)NC(=O)[C@H]([C@@H](C)O)NC(=O)[C@@H]2CCCN2C(=O)[C@H]([C@@H](C)O)NC(=O)[C@H](CC(=O)O)NC1=O` [compound 34, TSL6- SKCPLDTPTEC] (KCPLDTPTEC-NH2; linker N-2-10 via X3), the IC50 worked out at 748 nM. Regarding `CC(C)C[C@@H]1NC(=O)[C@@H]2CCCN2C(=O)[C@@H]2CSCc3cc(cc(c3)OCCCCCCO/N=C/C(=O)N[C@@H](CCCCN)C(=O)N2)CSC[C@@H](C(N)=O)NC(=O)[C@H](CCC(=O)O)NC(=O)[C@H](C)NC(=O)[C@@H]2CCCN2C(=O)[C@H]([C@@H](C)O)NC(=O)[C@H](CC(=O)O)NC1=O` [compound 35, TSL6- SKCPLDTPAEC] (KCPLDTPAEC-NH2; linker N-2-10 via X3), the IC50 worked out at 796 nM.

With `CC[C@H](C)[C@@H]1NC(=O)[C@H](CC(=O)O)NC(=O)[C@H](CCSC)NC(=O)[C@@H]2CCCN2C(=O)[C@@H](NC(=O)[C@H](CCCNC(=N)N)NC(=O)[C@H](CO)NC(C)=O)CSSC[C@@H](C(N)=O)NC(=O)[C@H](CCC(=O)O)NC(=O)CNC(=O)[C@H](C)NC1=O` [compound 36] (Ac-SRCPMDIAGEC-NH2; disulfide 3-11), the concentration for half-maximal inhibition (IC50) worked out at 932 nM. On to `CC[C@H](C)[C@@H]1NC(=O)[C@H](CC(=O)O)NC(=O)[C@H](CCSC)NC(=O)[C@@H]2CCCN2C(=O)[C@@H]2CSCc3cc(cc(c3)OCCCCCCO/N=C/C(=O)N[C@@H](C)C(=O)N2)CSC[C@@H](C(N)=O)NC(=O)[C@H]([C@@H](C)O)NC(=O)[C@@H]2CCCN2C1=O` [compound 37, TSL6- SACPMDIPTC] (ACPMDIPTC-NH2; linker N-2-9 via X3), for which the half-inhibitory concentration (IC50) is 943 nM. As for `CC(C)C[C@@H]1NC(=O)[C@@H]2CCCN2C(=O)[C@@H]2CSCc3cc(cc(c3)OCCCCCCO/N=C/C(=O)N[C@@H](CCCNC(=N)N)C(=O)N2)CSC[C@@H](C(N)=O)NC(=O)[C@H](CCC(=O)O)NC(=O)[C@H](Cc2ccc(O)cc2)NC(=O)[C@H](C)NC(=O)[C@H]([C@@H](C)O)NC(=O)[C@H](CC(=O)O)NC1=O` [compound 38, TSL6- SKCPLDTAYEC] (RCPLDTAYEC-NH2; linker N-2-10 via X3), the IC50 stood at 1040 nM. The result for `CCCC[C@@H]1NC(=O)[C@@H]2CCCN2C(=O)[C@@H]2CSCc3cc(cc(c3)OCCCCCCO/N=C/C(=O)N[C@@H](CCCNC(=N)N)C(=O)N2)CSC[C@@H](C(N)=O)NC(=O)[C@H](CCC(=O)O)NC(=O)[C@H](Cc2ccc(O)cc2)NC(=O)[C@@H]2CCCN2C(=O)[C@H](CC(C)(C)C)NC(=O)[C@H](CC(=O)O)NC1=O` [compound 39, TSL6-SRCP{Nle}D {tBuAla}PYEC] (RCP[Nle]D[tBuAla]PYEC-NH2; linker N-2-10 via X3) reads 1130 nM; that for `CC[C@H](C)[C@@H]1NC(=O)[C@H](CC(=O)O)NC(=O)[C@H](CCSC)NC(=O)[C@@H]2CCCN2C(=O)[C@@H]2CSCc3cc(cc(c3)OCCCCCCO/N=C/C(=O)N[C@@H](CCC(N)=O)C(=O)N2)CSC[C@@H](C(N)=O)NC(=O)[C@H]([C@@H](C)O)NC(=O)[C@@H]2CCCN2C1=O` [compound 40, TSL6- SQCPMDIPTC] (QCPMDIPTC-NH2; linker N-2-9 via X3), 1270 nM; that for `CC(C)C[C@@H]1NC(=O)[C@@H]2CCCN2C(=O)[C@@H](NC(=O)[C@H](CCCCN)NC(=O)[C@@H](N)CO)CSSC[C@@H](C(N)=O)NC(=O)[C@H](CO)NC(=O)[C@@H]2CCCN2C(=O)[C@H](C(C)C)NC(=O)[C@H](CC(=O)O)NC1=O` [compound 41] (H-SKCPLDVPSC-NH2; disulfide 3-10), 1300 nM.

With `CC(C)C[C@@H]1NC(=O)[C@@H]2CCCN2C(=O)[C@@H]2CSCc3cc(cc(c3)OCCCCCCO/N=C/C(=O)N[C@@H](CCCCN)C(=O)N2)CSC[C@@H](C(N)=O)NC(=O)[C@H](CCC(=O)O)NC(=O)[C@H](Cc2ccc(O)cc2)NC(=O)[C@@H]2CCCN2C(=O)[C@H](C)NC(=O)[C@H](CC(=O)O)NC1=O` [compound 42, TSL6- SKCPLDAPYEC] (KCPLDAPYEC-NH2; linker N-2-10 via X3), the half-maximal inhibitory concentration (IC50) worked out at 1400 nM.

These data come from patent US20230145835A1, “Modulators of Alpha-4-beta-7 Integrin and MAdCAM” (48HD Biopharma Inc., priority 2021, published 2023).
